Source: ChEMBL document CHEMBL2150986, “Synthesis and biological evaluation of 1-benzylidene-3,4-dihydronaphthalen-2-one as a new class of microtubule-targeting agents” (J Med Chem, 2012)

Columns and labels:
[1] = system: CCRF-CEM; assay: Cytotoxicity against human CEM cells after 72 hrs by MTT assay; format: functional, cell-based
[2] = system: K562; assay: Cytotoxicity against human K562 cells after 72 hrs by MTT assay; format: functional, cell-based; conditions: K562, 72 h
[3] = system: HT-29; assay: Cytotoxicity against human HT-29 cells after 72 hrs by MTT assay; format: functional, cell-based; conditions: HT-29, 72 h
[4] = system: HCT-116; assay: Cell cycle arrest in human HCT116 cells assessed as increase in accumulation at G2/M phase after 24 hrs by FACS flow cytometry; format: functional, cell-based
[5] = system: ZR-75-30; assay: Cytotoxicity against human ZR75-30 cells after 72 hrs by MTT assay; format: functional, cell-based; conditions: ZR-75-30, 72 h
[6] = target: Tubulin (Sus scrofa, UniProt P02554+P02550); assay: Inhibition of porcine brain tubulin assembly measured every 1 min for 60 mins by turbidimetric analysis
[7] = system: HCT-116; assay: Cell cycle arrest in human HCT116 cells assessed as decrease in accumulation at G1 phase after 24 hrs by FACS flow cytometry; format: functional, cell-based
[8] = system: HCT-116; assay: Cell cycle arrest in human HCT116 cells assessed as decrease in accumulation at S phase after 24 hrs by FACS flow cytometry; format: functional, cell-based
[9] = system: HCT-116; assay: Cell cycle arrest in human HCT116 cells assessed as accumulation at G2/M phase at 0.2 uM after 24 hrs by FACS flow cytometry (reference value: 13 %); format: functional
[10] = system: HCT-116; assay: Cell cycle arrest in human HCT116 cells assessed as accumulation at G2/M phase at 2 uM after 24 hrs by FACS flow cytometry; format: functional
[11] = system: Mus musculus; assay: Toxicity in nude BALB/c mouse xenografted with human HT-29 cells assessed as mortality at 100 mg/kg, ip qd after 21 days; format: organism-based; parameters: dose 100 mg/kg, route intraperitoneal; conditions: in vivo, 504 h
[12] = system: Mus musculus; assay: Toxicity in nude BALB/c mouse xenografted with human HT-29 cells assessed as mortality at 150 mg/kg, ip qd after 21 days; format: organism-based; parameters: dose 150 mg/kg, route intraperitoneal; conditions: in vivo, 504 h
[13] = system: Mus musculus; assay: Toxicity in nude BALB/c mouse xenografted with human HT-29 cells assessed as mortality at 300 mg/kg, ip qd after 21 days; format: organism-based; parameters: dose 300 mg/kg, route intraperitoneal; conditions: in vivo, 504 h
[14] = system: HT-29; assay: Antitumor activity against human HT-29 cells xenografted in nude BALB/c mouse assessed as decrease in tumor volume at 100 mg/kg, ip qd measured on day 21 relative to vehicle-treated control; format: functional; conditions: route intraperitoneal
[15] = system: HT-29; assay: Antitumor activity against human HT-29 cells xenografted in nude BALB/c mouse assessed as decrease in tumor volume at 150 mg/kg, ip qd measured on day 21 relative to vehicle-treated control; format: functional; conditions: route intraperitoneal
[16] = system: HT-29; assay: Antitumor activity against human HT-29 cells xenografted in nude BALB/c mouse assessed as decrease in tumor volume at 300 mg/kg, ip qd measured on day 21 relative to vehicle-treated control; format: functional; conditions: route intraperitoneal
[17] = system: Mus musculus; assay: Toxicity in nude BALB/c mouse xenografted with human HT-29 cells assessed as body weight change at 100 mg/kg, ip qd after 21 days (reference value: 2.7 g); format: organism-based; parameters: dose 100 mg/kg, route intraperitoneal; conditions: in vivo, 504 h
[18] = system: Mus musculus; assay: Toxicity in nude BALB/c mouse xenografted with human HT-29 cells assessed as body weight change at 150 mg/kg, ip qd after 21 days (reference value: 2.7 g); format: organism-based; parameters: dose 150 mg/kg, route intraperitoneal; conditions: in vivo, 504 h
[19] = system: Mus musculus; assay: Toxicity in nude BALB/c mouse xenografted with human HT-29 cells assessed as body weight change at 300 mg/kg, ip qd after 21 days (reference value: 2.7 g); format: organism-based; parameters: dose 300 mg/kg, route intraperitoneal; conditions: in vivo, 504 h
[20] = system: Mus musculus; assay: Toxicity in nude BALB/c mouse xenografted with human HT-29 cells assessed as effect on WBC count at 100 mg/kg, ip qd after 21 days (reference value: 25.38 +/- 0.22 x 10^3 mm'-3); format: organism-based; parameters: dose 100 mg/kg, route intraperitoneal; conditions: in vivo, 504 h
[21] = system: Mus musculus; assay: Toxicity in nude BALB/c mouse xenografted with human HT-29 cells assessed as effect on WBC count at 150 mg/kg, ip qd after 21 days (reference value: 25.38 +/- 0.22 x 10^3 mm'-3); format: organism-based; parameters: dose 150 mg/kg, route intraperitoneal; conditions: in vivo, 504 h
[22] = system: Mus musculus; assay: Toxicity in nude BALB/c mouse xenografted with human HT-29 cells assessed as effect on WBC count at 300 mg/kg, ip qd after 21 days (reference value: 25.38 +/- 0.22 x 10^3 mm'-3); format: organism-based; parameters: dose 300 mg/kg, route intraperitoneal; conditions: in vivo, 504 h
[23] = system: Mus musculus; assay: Toxicity in nude BALB/c mouse xenografted with human HT-29 cells assessed as effect on lymphocyte count at 100 mg/kg, ip qd after 21 days (reference value: 15.88 +/- 0.41 x 10^3 mm'-3); format: organism-based; parameters: dose 100 mg/kg, route intraperitoneal; conditions: in vivo, 504 h
[24] = system: Mus musculus; assay: Toxicity in nude BALB/c mouse xenografted with human HT-29 cells assessed as effect on lymphocyte count at 150 mg/kg, ip qd after 21 days (reference value: 15.88 +/- 0.41 x 10^3 mm'-3); format: organism-based; parameters: dose 150 mg/kg, route intraperitoneal; conditions: in vivo, 504 h
[25] = system: Mus musculus; assay: Toxicity in nude BALB/c mouse xenografted with human HT-29 cells assessed as effect on lymphocyte count at 300 mg/kg, ip qd after 21 days (reference value: 15.88 +/- 0.41 x 10^3 mm'-3); format: organism-based; parameters: dose 300 mg/kg, route intraperitoneal; conditions: in vivo, 504 h
[26] = system: Mus musculus; assay: Toxicity in nude BALB/c mouse xenografted with human HT-29 cells assessed as effect on platelet count at 100 mg/kg, ip qd after 21 days (reference value: 1509 +/- 34 x 10^3 mm'-3); format: organism-based; parameters: dose 100 mg/kg, route intraperitoneal; conditions: in vivo, 504 h
[27] = system: Mus musculus; assay: Toxicity in nude BALB/c mouse xenografted with human HT-29 cells assessed as effect on platelet count at 150 mg/kg, ip qd after 21 days (reference value: 1509 +/- 34 x 10^3 mm'-3); format: organism-based; parameters: dose 150 mg/kg, route intraperitoneal; conditions: in vivo, 504 h
[28] = system: Mus musculus; assay: Toxicity in nude BALB/c mouse xenografted with human HT-29 cells assessed as effect on platelet count at 300 mg/kg, ip qd after 21 days (reference value: 1509 +/- 34 x 10^3 mm'-3); format: organism-based; parameters: dose 300 mg/kg, route intraperitoneal; conditions: in vivo, 504 h
[29] = system: Mus musculus; assay: Toxicity in nude BALB/c mouse xenografted with human HT-29 cells assessed as effect on ALT level at 100 mg/kg, ip qd after 21 days (reference value: 28 +/- 0.4 IU/L); format: organism-based; parameters: dose 100 mg/kg, route intraperitoneal; conditions: in vivo, 504 h
[30] = system: Mus musculus; assay: Toxicity in nude BALB/c mouse xenografted with human HT-29 cells assessed as effect on ALT level at 150 mg/kg, ip qd after 21 days (reference value: 28 +/- 0.4 IU/L); format: organism-based; parameters: dose 150 mg/kg, route intraperitoneal; conditions: in vivo, 504 h
[31] = system: Mus musculus; assay: Toxicity in nude BALB/c mouse xenografted with human HT-29 cells assessed as effect on ALT level at 300 mg/kg, ip qd after 21 days (reference value: 28 +/- 0.4 IU/L); format: organism-based; parameters: dose 300 mg/kg, route intraperitoneal; conditions: in vivo, 504 h
[32] = system: Mus musculus; assay: Toxicity in nude BALB/c mouse xenografted with human HT-29 cells assessed as effect on ALP level at 100 mg/kg, ip qd after 21 days (reference value: 107.6 +/- 0.8 IU/L); format: organism-based; parameters: dose 100 mg/kg, route intraperitoneal; conditions: in vivo, 504 h
[33] = system: Mus musculus; assay: Toxicity in nude BALB/c mouse xenografted with human HT-29 cells assessed as effect on ALP level at 150 mg/kg, ip qd after 21 days (reference value: 107.6 +/- 0.8 IU/L); format: organism-based; parameters: dose 150 mg/kg, route intraperitoneal; conditions: in vivo, 504 h
[34] = system: Mus musculus; assay: Toxicity in nude BALB/c mouse xenografted with human HT-29 cells assessed as effect on ALP level at 300 mg/kg, ip qd after 21 days (reference value: 107.6 +/- 0.8 IU/L); format: organism-based; parameters: dose 300 mg/kg, route intraperitoneal; conditions: in vivo, 504 h
[35] = system: Mus musculus; assay: Toxicity in nude BALB/c mouse xenografted with human HT-29 cells assessed as change in kidney morphology at 100 to 300 mg/kg, ip qd after 21 days relative to vehicle-treated control; format: organism-based; parameters: dose 100-300 mg/kg, route intraperitoneal; conditions: in vivo, 504 h
[36] = system: Mus musculus; assay: Toxicity in nude BALB/c mouse xenografted with human HT-29 cells assessed as change in liver morphology at 100 to 300 mg/kg, ip qd after 21 days relative to vehicle-treated control; format: organism-based; parameters: dose 100-300 mg/kg, route intraperitoneal; conditions: in vivo, 504 h
[37] = system: Mus musculus; assay: Toxicity in nude BALB/c mouse xenografted with human HT-29 cells assessed as change in spleen morphology at 100 to 300 mg/kg, ip qd after 21 days relative to vehicle-treated control; format: organism-based; parameters: dose 100-300 mg/kg, route intraperitoneal; conditions: in vivo, 504 h
[38] = system: HT-29; assay: Antitumor activity against human HT-29 cells xenografted in ip dosed nude BALB/c mouse assessed as decrease in tumor volume administered as qd measured on day 21; format: functional, organism-based
[39] = system: Mus musculus; assay: Toxicity in ICR mouse assessed as mortality at 150 to 600 mg/kg, ip administered on day 1; format: organism-based; parameters: dose 150-600 mg/kg, route intraperitoneal; conditions: in vivo
[40] = system: Mus musculus; assay: Toxicity in ICR mouse assessed as body weight loss at 600 mg/kg, ip administered on day 1 measured for 10 days relative to vehicle-treated control; format: organism-based; parameters: dose 600 mg/kg, route intraperitoneal; conditions: in vivo, 240 h
[41] = system: HCT-116; assay: cells; conditions: Homo sapiens, HCT-116, 72 h
[42] = system: MDA-MB-435; assay: cells; conditions: Homo sapiens, MDA-MB-435, 72 h
Description: Cytotoxicity against human MDA-MB-435 cells after 72 hrs by MTT assay

COc1ccc2c(c1)CCC(=O)/C2=C/c1cc(OC)c(OC)c(OC)c1
IC50 [1]: 0.001 µM | IC50 [2]: 0.001 µM | IC50 [3]: 0.01 µM | Activity [4]: Dose-dependent effect | IC50 [5]: 0.01 µM | IC50 [6]: 3.93 µM | Activity [7]: Dose-dependent effect | Activity [8]: Dose-dependent effect | Activity [9]: 17% | Activity [10]: 74% | Activity [11]: Non-toxic | Activity [12]: Non-toxic | Activity [13]: Non-toxic | T/C [14]: 52% | T/C [15]: 45% | T/C [16]: 34% | Activity [17]: 2.3 g | Activity [18]: 3 g | Activity [19]: 2.6 g | Activity [20]: 24.42 ×10³ /mm3 | Activity [21]: 20.18 ×10³ /mm3 | Activity [22]: 19.96 ×10³ /mm3 | Activity [23]: 11.08 ×10³ /mm3 | Activity [24]: 10.03 ×10³ /mm3 | Activity [25]: 8.87 ×10³ /mm3 | Activity [26]: 1440 ×10³ /mm3 | Activity [27]: 1375 ×10³ /mm3 | Activity [28]: 1240 ×10³ /mm3 | Activity [29]: 24 IU/L | Activity [30]: 28 IU/L | Activity [31]: 26 IU/L | Activity [32]: 112 IU/L | Activity [33]: 116.3 IU/L | Activity [34]: 107.6 IU/L | Activity [35]: Non-toxic | Activity [36]: Non-toxic | Activity [37]: Non-toxic | Activity [38]: Dose-dependent effect | Activity [39]: Non-toxic | Activity [40]: Non-toxic | IC50 [41]: 0.1 µM | IC50 [42]: 0.001 µM
